# Where two headings read alike, the source gives them in different places.
# Columns and labels:
# [1] = tested on: normal human lung fibroblasts cells (MRC-5); assay: Cytotoxicity assay (WST-8), MRC-5; assay type: cell-based
# Description: (§1) PANC-1 and MRC-5 was cultured in complete growth medium according to the ATCC protocols. Cells were grown at 37° C. and 5% CO2 in humidified air.
# (§2) Cytotoxicity of total extracts of S. molesta was tested against PANC-1, A549, PC-3, and MRC-5. Cytotoxicity of the fractions was determined using A549 cells, a human non-small lung cancer cell line. Fractions were tested at 25, 50, and 100 μg/mL. The isolated pure compounds were tested in each of the cultured human tumor and normal cell lines at various concentrations between 1 and 100 μM with three replications. Human tumor and normal cells were inoculated into 96 well microtiter plates in 90 μL at plating densities ranging from 5,000 to 40,000 cells/well (measured by Z2 Coulter Counter of Beckman) depending on the doubling time of individual cell lines. Cell growth and viability was measured by WST-8 (Water Soluble Tetrazolium) assays following a standard protocol (Cell Counting Kit-8, Dojindo Molecular, Maryland). The WST-8 assay measured the relative activity of mitochondrial reductase enzymes in viable cells. A control WST reading (T0) before treatment was measured, then cells were continuously exposed to isolates for 48 h. After WST added and incubated for 2 h, the amount of formazan was measured by using a microplate spectrophotometer (μQuant spectrophotometer, Bio-Tek Instruments, Inc., Vermont) at 450 nm. TC or TD represents the readings of the untreated control or with tested compounds. Percent cell-growth (G) and percent cell-growth inhibition (GI) was calculated as: G=(TD−T0/TC−T0)×100; GI=[1−(TD−T0/TC−T0)]×100 for which TD≥T0; and G=(TD−T0/T0)×100; GI=[1−(TD−T0/T0)]×100 for which TD≤T0. […] Cancer drug doxorubicin was used as the positive controls in the cell-based assays.
# [2] = tested on: human prostate cancer (PC-3); assay: Cytotoxicity assay (WST-8), PC-3; assay type: cell-based
# Description: as §1, §2
# [3] = tested on: human non-small cell lung cancer (A549); assay: Cytotoxicity assay (WST-8), A549; assay type: cell-based
# Description: as §1, §2
# [4] = tested on: human exocrine pancreatic cancer (BxPC-3); assay: Cytotoxicity assay (WST-8), BxPC-3; assay type: cell-based
# human leukemia (HL-60) = assay: Cytotoxicity assay (WST-8), HL-60; assay type: cell-based
# [5] = tested on: human exocrine pancreatic cancer (PANC-1); assay: Cytotoxicity assay (WST-8), PANC-1; assay type: cell-based
# Description: as §1, §2
# [6] = Cytotoxicity assay (WST-8), MRC-5; assay type: cell-based, human; conditions: human
# Description: as §1, §2
# [7] = Homo sapiens, Table 7, WST-8, 48 h exposure, mean ± S.D., read-out: Cytotoxic activity (GI50) PC-3
# [8] = Homo sapiens, A549, Table 7, WST-8, 48 h exposure, mean ± S.D., read-out: Cytotoxic activity (GI50) A549
# [9] = Homo sapiens, BXPC-3, Table 7, WST-8, 48 h exposure, mean ± S.D., read-out: Cytotoxic activity (GI50) BxPC-3
# [10] = Homo sapiens, HL-60, Table 7, WST-8, 48 h exposure, mean ± S.D., read-out: Cytotoxic activity (GI50) HL-60
# [11] = Homo sapiens, PANC-1, Table 7, WST-8, 48 h exposure, mean ± S.D., read-out: Cytotoxic activity (GI50) PANC-1
# [12] = Homo sapiens, 48 h, read-out: Cytotoxic activity (GI50) PC-3
# [13] = Homo sapiens, Table 1, read-out: Activity against human prostate tumor PC-3 (GI50) (converted)
# [14] = Homo sapiens, A549, 48 h, read-out: Cytotoxic activity (GI50) A549
# [15] = Homo sapiens, A549, Table 1, read-out: Activity against human non-small cell lung tumor A549 (GI50) (converted)
# [16] = Homo sapiens, BXPC-3, 48 h, read-out: Cytotoxic activity (GI50) BxPC-3
# [17] = Homo sapiens, BXPC-3, Table 1, read-out: Activity against human exocrine pancreatic tumor BxPC-3 (GI50) (converted)
# [18] = Homo sapiens, HL-60, 48 h, read-out: Cytotoxic activity (GI50) HL-60
# [19] = Homo sapiens, HL-60, Table 1, read-out: Activity against human leukemia HL-60 (GI50) (converted)
# [20] = Homo sapiens, PANC-1, 48 h, read-out: Cytotoxic activity (GI50) PANC-1
# [21] = Homo sapiens, PANC-1, Table 1, read-out: Activity against human exocrine pancreatic tumor PANC-1 (GI50)
# [22] = Table 7, WST-8, 48 h exposure, mean ± S.D., read-out: Cytotoxic activity (GI50) PC-3
# [23] = Table 7, WST-8, 48 h exposure, mean ± S.D., read-out: Cytotoxic activity (GI50) A549
# [24] = Table 7, WST-8, 48 h exposure, mean ± S.D., read-out: Cytotoxic activity (GI50) BxPC-3
# [25] = Table 7, WST-8, 48 h exposure, mean ± S.D., read-out: Cytotoxic activity (GI50) HL-60
# [26] = Table 7, WST-8, 48 h exposure, mean ± S.D., read-out: Cytotoxic activity (GI50) PANC-1
Compound,"GI50 [2, 7]","GI50 [3, 8]","GI50 [4, 9]",GI50 (human leukemia (HL-60); [10]),"GI50 [5, 11]",GI50 at 48 h [6],"GI50 [2, 12]","GI50 [2, 13]","GI50 [3, 14]","GI50 [3, 15]","GI50 [4, 16]","GI50 [4, 17]",GI50 (human leukemia (HL-60); [18]),GI50 (human leukemia (HL-60); [19]),"GI50 [5, 20]","GI50 [5, 21]",further results
"CC(C)c1cc2c(cc1O)[C@@]1(C)CCCC(C)(C)[C@@H]1CC2 [Compound 14, ferruginol]",56.5 ± 16.5 µM,30.7 ± 5.22 µM,21.1 ± 0.51 µM,27.3 ± 8.95 µM,41.1 ± 14.1 µM,,,,,,,,,,,,"GI50 ([1]; human, 48 h): 40 ± 7.74 µM"
"CC(C)c1cc2c(cc1O)[C@@]1(C)CCCC(C)(C)C1CC2O (some centres unmarked) [Compound 15, 7-hydroxyferruginol]",,,,,,70.5 ± 7.21 µM,85.6 ± 5.3 µM,85.6 µM,75.1 ± 7.04 µM,75.1 µM,74.7 ± 11.1 µM,74.7 µM,75.2 ± 1.02 µM,75.2 µM,78.2 ± 13.5 µM,78.2 µM,
"CC(C)c1cc2ccc3c(c2cc1O)CCCC3(C)C [Compound 17, 12-hydroxy simonellite]",43.6 ± 11.9 µM,42.2 ± 3.89 µM,36.4 ± 8.08 µM,50 ± 15.2 µM,37.5 ± 5.72 µM,,,43.6 µM,,42.2 µM,,36.4 µM,,50 µM,,37.5 µM,"GI50 ([1]; human, 48 h): 55.4 ± 4.94 µM"
"CC(C)C1=Cc2ccc3c(c2C(=O)C1=O)C(=O)CCC3(C)C [Compound 19, 1-oxomiltirone]",,,,,,,,,,,,,,,,,"GI50 [1]: 20.4 ± 3.36 µM; GI50 [2, 22]: 19 ± 5.34 µM; GI50 [3, 23]: 24.9 ± 5.94 µM; GI50 [4, 24]: 20.5 ± 2 µM; GI50 (human leukemia (HL-60); [25]): 23.3 ± 6.66 µM; GI50 [5, 26]: 32.1 ± 2.75 µM"
"CC(C)c1cc2c(cc1O)[C@@]1(C)CCCC(C)(C)C1C=C2 (some centres unmarked) [Compound 16, 6,7-dehydroferruginol]",,,,,,59.2 ± 7.56 µM,58.1 ± 3.28 µM,58.1 µM,53.8 ± 9.65 µM,53.8 µM,37.5 ± 4.01 µM,37.5 µM,66.52 ± 0.04 µM,66.5 µM,46.7 ± 11 µM,46.7 µM,
"CC(C)C1=C(O)C(=O)C2=C(C=CC3C(C)(C)CCC[C@]23C)C1=O (some centres unmarked) [Compound 21, 6,7-dehydroroyleanone]",,,,,,,46.3 ± 6.6 µM,,48 ± 7.75 µM,,41.7 ± 2.92 µM,,30 ± 8.3 µM,,51.3 ± 10 µM,,"GI50 at 48 h ([6]; Table 7, normal lung cells, WST-8, 48 h exposure, mean ± S.D., read-out: Cytotoxic activity (GI50) MRC-5): 40.2 ± 2.06 µM; GI50 ([2]; Homo sapiens, read-out: Activity against human prostate tumor PC-3 (GI50)): 46.3 µM; GI50 ([3]; Homo sapiens, A549, read-out: Activity against human non-small cell lung tumor A549 (GI50)): 48 µM; GI50 ([4]; Homo sapiens, BXPC-3, read-out: Activity against human exocrine pancreatic tumor BxPC-3 (GI50)): 41.7 µM; GI50 (human leukemia (HL-60); Homo sapiens, HL-60, read-out: Activity against human leukemia HL-60 (GI50)): 30 µM; GI50 ([5]; Homo sapiens, PANC-1, read-out: Activity against human exocrine pancreatic tumor PANC-1 (GI50)): 51.3 µM"
"CC(C)c1cc(C=O)c([C@@]2(C)CCCC(C)(C)[C@H]2C=O)cc1O [Compound 22, 12-hydroxy-6,7-secoabieta-8,11,13-triene-6,7-dial]",,,,,,,,,93.8 ± 21.4 µM,93.8 µM,,,,,,,
"COc1cc2c(cc1C(C)C)C(=O)C(O)=C1C(C)(C)CCC[C@@]12C [Compound 11, montbretyl 12-methyl ether]",,21.2 ± 6.21 µM,,,,,,,,21.2 µM,,,,,,,
"CC(C)C1=C(O)C(=O)C2=C(CC[C@H]3C(C)(C)CCC[C@]23C)C1=O [Compound 20, royleanone]",27.1 ± 11.8 µM,30.1 ± 3.64 µM,51 ± 10.4 µM,36.3 ± 7.14 µM,52.6 ± 18.8 µM,45.7 ± 2.32 µM,,,,,,51 µM,,,,52.6 µM,
"CC(C)c1ccc2c3c(ccc2c1)C(C)(C)CCC3 [Compound 18, simonellite]",,,,,,,,,,,,,,,,,"GI50 [1]: > 100 µM; GI50 [2, 22]: > 100 µM; GI50 [3, 23]: > 100 µM; GI50 [4, 24]: > 100 µM; GI50 (human leukemia (HL-60); [25]): > 100 µM; GI50 [5, 26]: > 100 µM"
"CC(C)c1cc2c(cc1O)[C@@]1(C)CCCC(C)(C)C1=CC2=O [Compound 9, 5,6-dehydrosugiol]",,,,,,> 100 µM,> 100 µM,,84.5 ± 18.7 µM,84.5 µM,> 100 µM,,92.8 ± 9.98 µM,,> 100 µM,,
"CC(C)c1cc2c(cc1O)[C@@]1(C)CCCC(C)(C)[C@@H]1CC2=O [Compound 13, sugiol]",> 100 µM,79.8 ± 2.18 µM,36.1 ± 1.5 µM,68.6 ± 13.5 µM,87.9 ± 11.2 µM,,,,,,,,,,,,"GI50 ([1]; human, 48 h): > 100 µM"
"CC(C)c1cc2c(c(O)c1O)[C@@]1(C)CCCC(C)(C)[C@@H]1CC2=O [Compound 12, 11-hydroxysugiol]",,,,,,40.2 ± 0.91 µM,41 ± 7.9 µM,41 µM,35 ± 6.2 µM,35 µM,45 ± 8.33 µM,45 µM,35.3 ± 0.63 µM,35.3 µM,43.1 ± 8.32 µM,43.1 µM,

# From patent US10464963B2, “Compounds from invasive Salvinias and methods of using the same” (STEPHEN F. AUSTIN STATE UNIVERSITY, priority 2013, dated 2019)
